According to article PMC11510214, “Novel Dual Acetyl- and Butyrylcholinesterase Inhibitors Based on the Pyridyl–Pyridazine Moiety for the Potential Treatment of Alzheimer’s Disease” (Pharmaceuticals, 2024):
Where “and” joins values, the source holds several entries; their conditions need not be identical. Equal entries are not always repeated.

Tests used:
[1] = target: T1, acetylcholinesterase (AChE) (Homo sapiens, UniProt P22303); details: for Selectivity Index (AChE/BuChE): ratio between (AChE/BuChE) IC50; for IC50 against acetylcholinesterase (AChE): human enzyme, dose response 0.01 to 100 µM;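 on all read-outs here: Kit-based enzyme assay using enzymes of human origin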
T1 sequence (P22303 32-614): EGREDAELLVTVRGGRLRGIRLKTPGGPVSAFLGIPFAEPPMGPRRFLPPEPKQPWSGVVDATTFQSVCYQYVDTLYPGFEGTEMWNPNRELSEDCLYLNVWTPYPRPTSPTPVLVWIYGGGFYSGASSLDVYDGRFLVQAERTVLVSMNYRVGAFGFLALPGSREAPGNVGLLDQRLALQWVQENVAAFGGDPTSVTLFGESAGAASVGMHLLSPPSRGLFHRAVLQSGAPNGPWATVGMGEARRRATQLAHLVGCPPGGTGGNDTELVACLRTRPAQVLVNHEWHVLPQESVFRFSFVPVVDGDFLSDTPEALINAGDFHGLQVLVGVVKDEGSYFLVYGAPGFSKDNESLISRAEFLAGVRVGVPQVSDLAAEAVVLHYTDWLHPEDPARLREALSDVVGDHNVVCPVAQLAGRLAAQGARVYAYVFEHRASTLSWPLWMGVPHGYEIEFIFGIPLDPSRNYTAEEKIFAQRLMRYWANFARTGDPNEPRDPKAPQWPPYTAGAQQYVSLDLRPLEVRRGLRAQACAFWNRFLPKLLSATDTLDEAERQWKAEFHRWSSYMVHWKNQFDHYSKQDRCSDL
Protocol: (§1) Experimental procedures were followed as instructed by the kits’ manufacturer. The enzymes used in the assays were of human origin. IC50 values of the compounds were calculated from the obtained dose response curve, and selectivity index was calculated as a ratio between (AChE/BuChE) IC50.

[2] = target: butyrylcholinesterase (BuChE) (Homo sapiens, UniProt P06276); experiment: biochemical; details: for IC50: IC50 against butyrylcholinesterase (BuChE), human enzyme, dose response 0.01 to 100 µM; for inhibition at 0.01 µM / inhibition at 0.1 µM / inhibition at 1 µM / inhibition at 10 µM / inhibition at 100 µM: read-out: % inhibition BuChE
butyrylcholinesterase (BuChE), sequence (P06276 29-602): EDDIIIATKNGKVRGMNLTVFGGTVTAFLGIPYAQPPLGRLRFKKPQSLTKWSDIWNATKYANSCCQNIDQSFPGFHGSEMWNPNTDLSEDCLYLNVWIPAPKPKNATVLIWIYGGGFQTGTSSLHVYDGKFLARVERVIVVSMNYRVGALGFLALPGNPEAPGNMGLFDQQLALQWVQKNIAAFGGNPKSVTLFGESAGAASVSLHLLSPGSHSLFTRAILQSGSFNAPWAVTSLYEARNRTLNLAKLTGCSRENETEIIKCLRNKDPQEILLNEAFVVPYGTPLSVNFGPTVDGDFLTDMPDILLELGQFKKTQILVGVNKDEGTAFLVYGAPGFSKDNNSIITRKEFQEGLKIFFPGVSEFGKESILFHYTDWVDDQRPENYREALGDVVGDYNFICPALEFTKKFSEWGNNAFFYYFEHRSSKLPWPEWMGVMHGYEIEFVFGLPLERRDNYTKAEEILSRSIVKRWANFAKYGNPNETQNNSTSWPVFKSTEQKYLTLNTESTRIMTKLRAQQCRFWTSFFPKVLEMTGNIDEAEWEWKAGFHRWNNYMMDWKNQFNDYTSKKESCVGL
Protocol: as §1

[3] = target: T1, acetylcholinesterase (AChE); experiment: biochemical; details: for IC50: IC50 against acetylcholinesterase (AChE), human enzyme, dose response 0.01 to 100 µM; for inhibition at 0.01 µM / inhibition at 0.1 µM / inhibition at 1 µM / inhibition at 10 µM / inhibition at 100 µM: read-out: % inhibition AChE
Protocol: as §1

AChE = test system: AChE; design: method as in PMID 23466605, PMID 10052979, PMID 29775949, PMID 31675671; details: Figure 1; ref [37],[30],[34],[38],[36]; read-out: AChE inhibition IC50; cited from earlier work

SMILES	Selectivity Index (AChE/BuChE) [1]	IC50 [2]	inhibition at 0.01 µM [2]	inhibition at 0.1 µM [2]	inhibition at 1 µM [2]	inhibition at 10 µM [2]	inhibition at 100 µM [2]	IC50 [3]	inhibition at 0.01 µM [3]	inhibition at 0.1 µM [3]	inhibition at 1 µM [3]	inhibition at 10 µM [3]	inhibition at 100 µM [3]	IC50 against acetylcholinesterase (AChE) [1]	IC50 (AChE)
C#CCSc1ccc(-c2ccccn2)nn1 [Compound 1, 3-(Prop-2-yn-1-ylthio)-6-(pyridin-2-yl)pyridazine]	2.64	4.37 ± 0.14 µM	8.7%	19%	27%	54%	83%	11.5 ± 0.48 µM	6.1%	23%	51%	74%	89%		
CC(=O)OCC1OC(n2cc(CSc3ccc(-c4ccccn4)nn3)nn2)C(OC(C)=O)C(OC(C)=O)C1OC(C)=O [Compound 3, (2R,3R,4S,5R,6R)-2-(Acetoxymethyl)-6-(4-(((6-(pyridin-2-yl)pyridazin-3-yl)thio)methyl)-1H-1,2,3-triazol-1-yl)tetrahydro-2H-pyran-3,4,5-triyltriacetate]	29.32	0.297 µM and 0.29 µM	25%	39%	61%	79%	93%	8.71 µM and 8.7 µM	7.4%	23%	43%	72%	88%	moderate inhibition	
CC(=O)OC[C@H]1O[C@@H](n2cc(CSc3ccc(-c4ccccn4)nn3)nn2)[C@H](OC(C)=O)[C@@H](OC(C)=O)[C@H]1OC(C)=O [Compound 4, (2R,3S,4S,5R,6R)-2-(Acetoxymethyl)-6-(4-(((6-(pyridin-2-yl)pyridazin-3-yl)thio)methyl)-1H-1,2,3-triazol-1-yl)tetrahydro-2H-pyran-3,4,5-triyl triacetate]	0.81	14.6 ± 0.48 µM	5.1%	11%	20%	41%	75%	11.9 ± 0.5 µM	11%	29%	47%	71%	87%		
CC(=O)OC1COC(n2cc(CSc3ccc(-c4ccccn4)nn3)nn2)C(OC(C)=O)C1OC(C)=O (centres unmarked) [Compound 5]	1.41	0.189 µM and 0.18 µM	25%	48%	67%	78%	91%	0.266 µM and 0.26 µM	42%	61%	71%	83%	94%		
CC(=O)OC[C@H]1O[C@@H](n2cc(CSc3ccc(-c4ccccn4)nn3)nn2)[C@H](OC(C)=O)[C@@H]1OC(C)=O [Compound 6, (2R,3R,4R,5R)-2-(Acetoxymethyl)-5-(4-(((6-(pyridin-2-yl)pyridazin-3-yl)thio)methyl)-1H-1,2,3-triazol-1-yl)tetrahydrofuran-3,4-diyl diacetate]	0.29	32 ± 1.05 µM	4%	8.1%	19%	33%	69%	9.15 µM	9%	29%	55%	73%	88%	moderate inhibition	
OC[C@H]1O[C@@H](n2cc(CSc3ccc(-c4ccccn4)nn3)nn2)[C@H](O)[C@@H](O)[C@@H]1O [Compound 7, (2R,3S,4S,5R,6R)-2-(Hydroxymethyl)-6-(4-(((6-(pyridin-2-yl)pyridazin-3-yl)thio)methyl)-1H-1,2,3-triazol-1-yl)tetrahydro-2H-pyran-3,4,5-triol]	0.39	7.9 ± 0.26 µM	7.8%	13%	23%	48%	79%	3.14 ± 0.13 µM	14%	38%	62%	80%	92%	moderate inhibition	
OC[C@H]1O[C@@H](n2cc(CSc3ccc(-c4ccccn4)nn3)nn2)[C@H](O)[C@@H]1O [Compound 8, (2R,3S,4R,5R)-2-(Hydroxymethyl)-5-(4-(((6-(pyridin-2-yl)pyridazin-3-yl)thio)methyl)-1H-1,2,3-triazol-1-yl)tetrahydrofuran-3,4-diol]	0.12	5.35 ± 0.17 µM	5.9%	13%	22%	55%	82%	0.64 ± 0.02 µM	26%	43%	62%	88%	93%		
OCCOCCn1cc(CSc2ccc(-c3ccccn3)nn2)nn1 [Compound 9]	1.68	0.384 µM and 0.38 µM	22%	37%	56%	80%	93%	0.647 µM and 0.64 µM	35%	54%	70%	82%	92%		
OCCn1cc(CSc2ccc(-c3ccccn3)nn2)nn1 [Compound 10, 2-(4-(((6-(Pyridin-2-yl)pyridazin-3-yl)thio)methyl)-1H-1,2,3-triazol-1-yl)ethan-1-ol]	0.30	6.06 ± 0.2 µM	5.6%	13%	31%	51%	78%	1.84 ± 0.07 µM	24%	40%	68%	83%	90%		
NCCn1cc(CSc2ccc(-c3ccccn3)nn2)nn1 [Compound 11, 2-(4-(((6-(Pyridin-2-yl)pyridazin-3-yl)thio)methyl)-1H-1,2,3-triazol-1-yl)ethan-1-amine]	0.34	42.9 ± 1.52 µM	-8.1%	7.5%	12%	33%	71%	14.6 ± 0.61 µM	7.5%	26%	53%	76%	90%		
COc1cc2c(cc1OC)C(=O)C(CC1CCN(Cc3ccccc3)CC1)C2 (centres unmarked) [Donepezil, donepezil, reference compound]			16%	32%	65%	84%	94%								
CCN(C)C(=O)Oc1cccc([C@H](C)N(C)C)c1 [Rivastigmine, rivastigmine, reference compound]			0.7%	3.2%	7%	38%	80%								
Cc1ccc(-c2ccc(=O)n(CCc3n[nH]c(=S)n3-c3ccc(OC(F)(F)F)cc3)n2)cc1 [VII]															0.049 µM
CC(=O)OCC1O[C@@H](n2cc(CNc3c4c(nc5ccccc35)CCCC4)nn2)C(OC(C)=O)C(OC(C)=O)C1OC(C)=O (some centres unmarked) [VI]															4.89 µM
COc1ccc(-c2ccc(C(=O)NCCC3CCN(Cc4ccccc4)CC3)nn2)cc1 [V]															0.11 µM
